Reference: US7157453B2, “Urea substituted imidazoquinolines” (3M Innovation Properties Company, priority 1999, dated 2007)
Structures can show the parent of a compound that is named as a salt.

Assays:
[1] = system: tumor necrosis factor (α); test: Cytokine Induction in Human Cells: tumor necrosis factor (α) by ELISA; type: cell-based; details: PBMC; human PBMCs, incubated 18 to 24 hours, lowest concentration found to induce tumor necrosis factor
Text: (§1) An in vitro human blood cell system was used to assess cytokine induction by compounds of the invention. Activity is based on the measurement of interferon and tumor necrosis factor (α) (IFN and TNF, respectively) secreted into culture media as described by Testerman et. al. In “Cytokine Induction by the Immunomodulators Imiquimod and S-27609”, Journal of Leukocyte Biology, 58, 365–372 (September, 1995).
(§2) Whole blood is collected by venipuncture into EDTA vacutainer tubes from healthy human donors. Peripheral blood mononuclear cells (PBMCs) are separated from whole blood by density gradient centrifugation using Histopaque®-1077 (Sigma Chemicals, St. Louis, Mo.). The PBMCs are suspended at 3–4×10^6 cells/mL in RPMI 1640 medium containing 10% fetal bovine serum, 2 mM L-glutamine and 1% penicillin/streptomycin solution (RPMI complete). The PBMC suspension is added to 48 well flat bottom sterile tissue culture plates (Costar, Cambridge, Mass. or Becton Dickinson Labware, Lincoln Park, N.J.) containing an equal volume of RPMI complete media containing test compound.
(§3) The compounds are solubilized in dimethyl sulfoxide (DMSO). The DMSO concentration should not exceed a final concentration of 1% for addition to the culture wells.
(§4) The solution of test compound is added at 60 μM to the first well containing RPMI complete and serial (three fold or ten fold) dilutions are made. The PBMC suspension is then added to the wells in an equal volume, bringing the test compound concentrations to the desired range. The final concentration of PBMC suspension is 1.5–2×10^6 cells/mL. The plates are covered with sterile plastic lids, mixed gently and then incubated for 18 to 24 hours at 37° C. in a 5% carbon dioxide atmosphere.
(§5) Following incubation the plates are centrifuged for 5–10 minutes at 1000 rpm (˜200×g) at 4° C. The cell culture supernatant is removed with a sterile polypropylene pipet and transferred to sterile polypropylene tubes. Samples are maintained at −30 to −70° C. until analysis. The samples are analyzed for interferon (α) and tumor necrosis factor (α) by ELISA
Tumor necrosis factor (α) (TNF) concentration is determined using ELISA kits available from Genzyme, Cambridge, Mass.; R&D Systems, Minneapolis, Minn.; or Pharmingen, San Diego, Calif.
(§6) The table below lists the lowest concentration found to induce interferon and the lowest concentration found to induce tumor necrosis factor for each compound.

[2] = system: interferon (α); test: Cytokine Induction in Human Cells: interferon (α) by ELISA; type: cell-based; details: PBMC; human PBMCs, incubated 18 to 24 hours, lowest concentration found to induce interferon
Text: as §1, §2, §3, §4, §5
Interferon (α) concentration is determined by ELISA using a Human Multi-Species kit from PBL Biomedical Laboratories, New Brunswick, N.J.
as §6

Structure (SMILES)	melting point	minimal effective concentration [1] [µM]	minimal effective concentration [2] [µM]
Nc1nc2ccccc2c2c1ncn2CCCCNC(=O)Oc1ccc2ccccc2c1	154 to 155 °C		
CCCCCc1nc2c(N)nc3c(c2n1CCCCNC(=O)N1CCOCC1)CCCC3 (as salt: hydrochloride) [Example 172, N-[4-(4-amino-2-pentyl-6,7,8,9-tetrahydro-1H-imidazo[4,5-c]quinolin-1-yl)butyl]morpholine-4-carboxamide hydrochloride]	126.8 to 127.5 °C		
CC(C)(C)OC(=O)NCCn1cnc2c(N)nc3ccccc3c21 [Example 1, Tert-Butyl N-[2-(4-Amino-1H-imidazo[4,5-c]quinolin-1-yl)ethyl]carbamate]	215 °C	30	3.33
CC(C)(C)OC(=O)NCCCCn1cnc2c(N)nc3ccccc3c21 [Example 2]	171 to 173 °C	3.33	0.37
Nc1nc2ccccc2c2c1ncn2CCCCNC(=O)N1CCOCC1 [Example 5, N^4-[4-(4-Amino-1H-imidazo[4,5-c]quinolin-1-yl)butyl]-4-morpholinecarboxamide]	177 to 179.5 °C	> 30	3.33
CN(C(=O)NCCCCn1cnc2c(N)nc3ccccc3c21)c1ccccc1 [Example 6, N^1-[4-(4-Amino-1H-imidazo[4,5-c]quinolin-1-yl)butyl]-N-methyl-N-phenylurea]	87 to 88 °C	> 30	0.37
COc1ccc(Cc2nc3c(N)nc4ccccc4c3n2CCCCNC(N)=O)cc1 [Example 10, N-{4-[4-Amino-2-(4-methoxybenzyl)-1H-imidazo[4,5-c]quinolin-1-yl]butyl}urea]	196 °C (dec.)		
CC(C)(C)OC(=O)NCCCCn1c(-c2ccccc2)nc2c(N)nc3ccccc3c21 [Example 12, tert-Butyl N-[4-(4-Amino-2-phenyl-1H-imidazo[4,5-c]quinolin-1-1)butyl]carbamate]	182 to 183 °C		
CCCNC(=S)NCCCCn1c(-c2ccccc2)nc2c(N)nc3ccccc3c21 [Example 13, N-[4-(4-Amino-2-phenyl-1H-imidazo[4,5-c]quinolin-1-yl)butyl]-N′-propylthiourea]	113 to 116 °C		
Nc1nc2ccccc2c2c1nc(-c1ccccc1)n2CCCCNC(=S)Nc1cccnc1 [Example 14, N-[4-(4-Amino-2-phenyl-1H-imidazo[4,5-c]quinolin-1-yl)butyl]-N′-(3-pyridyl)thiourea]	118 to 120 °C		
Nc1nc2ccccc2c2c1nc(-c1ccccc1)n2CCCCNC(=O)Nc1ccc(F)cc1 [Example 15, N-[4-(4-amino-2-phenyl-1H-imidazo[4,5-c]quinolin-1-yl)butyl]-N′-(4-fluorophenyl)urea]	145 to 150 °C		
CCc1nc2c(N)nc3ccccc3c2n1CCCCNC(=O)Nc1ccccc1 [Example 143, N-[4-(4-amino-2-ethyl-1H-imidazo[4,5-c]quinolin-1-yl)butyl]-N′-phenylurea]	179.7 to 181.4 °C	0.37	0.01
Cc1nc2c(N)nc3ccccc3c2n1CCCCNC(=O)Nc1ccccc1 [Example 144, N-[4-(4-amino-2-methyl-1H-imidazo[4,5-c]quinolin-1-yl)butyl]-N′-phenylurea]	171.5 to 172.5 °C	0.37	0.04
COCCc1nc2c(N)nc3ccccc3c2n1CCCNC(=O)OC(C)(C)C [Example 148, tert-butyl 3-[4-amino-2-(2-methoxyethyl)-1H-imidazo[4,5-c]quinolin-1-yl]propylcarbamate]	174.2 to 175.8 °C	0.04	0.04
CCCCc1nc2c(N)nc3ccccc3c2n1CCCNC(=S)Nc1ccccc1 [Example 149, N-[3-(4-amino-2-butyl-1H-imidazo[4,5-c]quinolin-1-yl)propyl]-N′-phenylthiourea]	142.8 to 144 °C	0.37	0.04
CCCCNC(=O)NCCCn1c(CCCC)nc2c(N)nc3ccccc3c21 [Example 150, N-[3-(4-amino-2-butyl-1H-imidazo[4,5-c]quinolin-1-yl)propyl]-N′-butylurea]	185.5 to 186.4 °C	0.37	0.04
CCCCc1nc2c(N)nc3ccccc3c2n1CCCNC(=O)N1CCOCC1 [Example 151, N-[3-(4-amino-2-butyl-1H-imidazo[4,5-c]quinolin-1-yl)propyl]morpholine-4-carboxamide]	193.4 to 194.6 °C	0.01	0.01
CCCCc1nc2c(N)nc3ccccc3c2n1CCCNC(=S)NCCC [Example 152, N-[3-(4-amino-2-butyl-1H-imidazo[4,5-c]quinolin-1-yl)propyl]-N′-propylthiourea]	144.5 to 145.5 °C	0.04	0.04
CCCCc1nc2c(N)nc3ccccc3c2n1CCCNC(=O)NC1CCCCC1 [Example 153, N-[3-(4-amino-2-butyl-1H-imidazo[4,5-c]quinolin-1-yl)propyl]-N′-cyclohexylurea]	200 to 201 °C	0.12	0.01
CCCCc1nc2c(N)nc3ccccc3c2n1CCCCCCCCNC(=O)Nc1ccccc1 [Example 154, N-[8-(4-amino-2-butyl-1H-imidazo[4,5-c]quinolin-1-yl)octyl]-N′-phenylurea]	153 to 155 °C	1.11	0.37
CCCCCCc1nc2c(N)nc3ccccc3c2n1CCCCNC(=O)Nc1ccccc1 [Example 155, N-[4-(4-amino-2-hexyl-1H-imidazo[4,5-c]quinolin-1-yl)butyl]-N′-phenylurea]	170.4 to 171.6 °C	10	3.33
CCCNC(=S)NCCCn1c(CCOC)nc2c(N)nc3ccccc3c21 [Example 156, N-{3-[4-amino-2-(2-methoxyethyl)-1H-imidazo[4,5-c]quinolin-1-yl]propyl}-N′-propylthiourea]	172 to 173 °C	1.11	0.01
COCCc1nc2c(N)nc3ccccc3c2n1CCCNC(=S)NC1CCCCC1 [Example 157, N-{3-[4-amino-2-(2-methoxyethyl)-1H-imidazo[4,5-c]quinolin-1-yl]propyl}-N′-cyclohexylthiourea]	199 to 200 °C	1.11	0.37
COCCc1nc2c(N)nc3ccccc3c2n1CCCNC(=O)NC1CCCCC1 [Example 158, N-{3-[4-amino-2-(2-methoxyethyl)-1H-imidazo[4,5-c]quinolin-1-yl]propyl}-N′-cyclohexylurea]	179 to 180 °C	1.11	0.01
CCCCCc1nc2c(N)nc3ccccc3c2n1CCCCNC(=O)Nc1ccccc1 [Example 159, N-[4(4-amino-2-pentyl-1H-imidazo[4,5-c]quinolin-1-yl)butyl]-N′-phenylurea]	159 to 160.4 °C	10	1.11
Nc1nc2ccccc2c2c1nc(CCCOc1ccccc1)n2CCCNC(=O)N1CCOCC1 [Example 166, N-{3-[4-amino-2-(3-phenoxypropyl)-1H-imidazo[4,5-c]quinolin-1-yl]propyl}morpholine-4-carboxamide]	198.8 to 199.9 °C		
Cc1nc2c(N)nc3ccccc3c2n1CCCNC(=O)N1CCOCC1 [Example 167, N-[3-(4-amino-2-methyl-1H-imidazo[4,5-c]quinolin-1-yl)propyl]morpholine-4-carboxamide]	226 to 228 °C		
COCCc1nc2c(N)nc3c(c2n1CCCNC(=O)N1CCOCC1)CCCC3 [Example 168, N-{3-[4-amino-2-(2-methoxyethyl)-6,7,8,9-tetrahydro-1H-imidazo[4,5-c]quinolin-1-yl]propyl}morpholine-4-carboxamide]	171.8 to 173.2 °C		
